According to patent US20060069132A1, “Azolecarboxamide herbicides” (priority 2004, published 2006):

How the values were obtained:
velvetleaf [1] = assay: Test A pre-/postemergence herbicide test; assay type: in vivo, Abutilon theophrasti
Procedure, shortened: (§1)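 Visual injury rating on a 0–100 scale (0 no effect, 100 complete control) versus untreated controls, about ten days after treatment in greenhouse. Pre: directed soil spray onto seeded sandy loam. Post: spray to runoff on plants 2–10 cm tall at one- to two-leaf stage.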

wild oat = assay: Test B postemergence herbicide test; assay type: in vivo, Avena fatua; details: postemergence, visual rating, scale 0 (no effect) to 100 (complete control)
Procedure, shortened: (§2)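 Formulated test chemicals went onto postemergence plants measuring 2 to 18 cm, at one to four leaves. For the paddy assay, species had reached two leaves. Scoring took place 13–15 days later by eye, relative to untreated plants, using 0 for no effect up to 100 for full control.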

large crabgrass [2] = assay: Test A pre-/postemergence herbicide test; assay type: in vivo, Digitaria sanguinalis
Procedure, shortened: as §1

morningglory [3] = assay: Test A pre-/postemergence herbicide test; assay type: in vivo, Ipomoea spp.
Procedure, shortened: as §1

cocklebur = assay: Test B pre-/postemergence herbicide test; assay type: in vivo, Xanthium strumarium; details: for Plant response rating, Cocklebur: preemergence; for Cocklebur plant response rating: postemergence, visual rating, scale 0 (no effect) to 100 (complete control)
Procedure, shortened: (§3)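 Herbicidal effect was judged by eye on a 0–100 scale after plants stood 13 to 15 days in the greenhouse following pre- or postemergence treatment with surfactant-containing formulations.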

barnyardgrass [4] = assay: Test A pre-/postemergence herbicide test; assay type: in vivo, Echinochloa crus-galli
Procedure, shortened: as §1

large crabgrass [5] = assay: Test B pre-/postemergence herbicide test; assay type: in vivo, Digitaria sanguinalis; details: for Plant response rating, Crabgrass, Large: preemergence; for Crabgrass, Large plant response rating: postemergence, visual rating, scale 0 (no effect) to 100 (complete control)
Procedure, shortened: (§4)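 Evaluation is visual, comparing treated with control plants on a scale where 0 means no effect and 100 means full control. Treatments were preemergence, or postemergence on seedlings 2–18 cm tall, and held 13–15 days in the greenhouse.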

morningglory [6] = assay: Test B pre-/postemergence herbicide test; assay type: in vivo, Ipomoea coccinea; details: for Plant response rating, Morningglory: preemergence; for Morningglory plant response rating: postemergence, visual rating, scale 0 (no effect) to 100 (complete control)
Procedure, shortened: as §3

velvetleaf [7] = assay: Test B pre-/postemergence herbicide test; assay type: in vivo, Abutilon theophrasti; details: for Plant response rating, Velvetleaf: preemergence; for Velvetleaf plant response rating: postemergence, visual rating, scale 0 (no effect) to 100 (complete control)
Procedure, shortened: as §4

giant foxtail [8] = assay: Test A pre-/postemergence herbicide test; assay type: in vivo, Setaria faberi
Procedure, shortened: as §1

wheat = assay: Test B postemergence herbicide test; assay type: in vivo, Triticum aestivum; design: key to Wheat plant response rating: 0 = no effect, 100 = complete control; details: postemergence, visual rating, scale 0 (no effect) to 100 (complete control)
Procedure, shortened: as §2

blackgrass = assay: Test B postemergence herbicide test; assay type: in vivo, Alopecurus myosuroides; details: postemergence, visual rating, scale 0 (no effect) to 100 (complete control)
Procedure, shortened: (§5)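 Treated at 2-leaf (paddy) or 1–4-leaf, 2–18 cm (postemergence); greenhouse 13–15 d; visual score vs control, 0 none to 100 complete control; dash = not tested.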

rice [9] = assay: Test B pre-/postemergence herbicide test; assay type: in vivo, Oryza sativa; details: 500 g ai/ha; visual rating 0-100, 0 no effect, 100 complete control; preemergence
Procedure, shortened: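 Plants compared with untreated controls 13–15 days post-treatment and given a visual 0–100 injury score. Applications: preemergence to seeds; postemergence at 1- to 4-leaf (2–18 cm); paddy species flooded, 2-leaf stage. Vehicle non-phytotoxic, surfactant included.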

corn = assay: Test B pre-/postemergence herbicide test; assay type: in vivo, Zea mays; details: for Plant response rating, Corn: preemergence; for Corn plant response rating: postemergence, visual rating, scale 0 (no effect) to 100 (complete control)
Procedure, shortened: as §4

barnyardgrass [10] = assay: Test B pre-/postemergence herbicide test; assay type: in vivo, Echinochloa crus-galli; details: for Plant response rating, Barnyardgrass: preemergence; for Barnyardgrass plant response rating: postemergence, visual rating, scale 0 (no effect) to 100 (complete control)
Procedure, shortened: as §3

[11] = system: small flower umbrella sedge; assay: Test B flooded paddy test; assay type: in vivo, Cyperus difformis; details: 1000 g ai/ha, visual rating, scale 0 to 100 (0 no effect, 100 complete control), 13 to 15 days
Procedure, shortened: as §5

ducksalad = assay: Test B flooded paddy test; assay type: in vivo, Heteranthera limosa; details: 1000 g ai/ha, visual rating, scale 0 to 100 (0 no effect, 100 complete control), 13 to 15 days
Procedure, shortened: as §5

lambsquarters = assay: Test B pre-/postemergence herbicide test; assay type: in vivo, Chenopodium album; details: for Plant response rating, Lambsquarters: preemergence; for Lambsquarters plant response rating: postemergence, visual rating, scale 0 (no effect) to 100 (complete control)
Procedure, shortened: as §4

giant foxtail [12] = assay: Test B pre-/postemergence herbicide test; assay type: in vivo, Setaria faberi; details: for Plant response rating, Foxtail, Giant: preemergence; for Foxtail, Giant plant response rating: postemergence, visual rating, scale 0 (no effect) to 100 (complete control)
Procedure, shortened: as §4

redroot pigweed = assay: Test A pre-/postemergence herbicide test; assay type: in vivo, Amaranthus retroflexus
Procedure, shortened: as §1

rice [13] = assay: Test B flooded paddy test; assay type: in vivo, Oryza sativa; details: 1000 g ai/ha, visual rating, scale 0 to 100 (0 no effect, 100 complete control), 13 to 15 days
Procedure, shortened: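 Each value is a visual 0–100 response rating taken against controls 13 to 15 days after treatment in the greenhouse. Plants received formulated chemical postemergence at the 1- to 4-leaf stage or, in flooded paddy, at the 2-leaf stage.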

Surinam grass = assay: Test B pre-/postemergence herbicide test; assay type: in vivo, Urochloa decumbens; details: for Plant response rating, Surinam Grass: preemergence; for Surinam Grass plant response rating: postemergence, visual rating, scale 0 (no effect) to 100 (complete control)
Procedure, shortened: as §4

barnyardgrass [14] = assay: Test B flooded paddy test; assay type: in vivo, Echinochloa crus-galli; details: 1000 g ai/ha, visual rating, scale 0 to 100 (0 no effect, 100 complete control), 13 to 15 days
Procedure, shortened: as §5

pigweed = assay: Test B pre-/postemergence herbicide test; assay type: in vivo, Amaranthus retroflexus; details: for Plant response rating, Pigweed: preemergence; for Pigweed plant response rating: postemergence, visual rating, scale 0 (no effect) to 100 (complete control)
Procedure, shortened: as §4

[15] = Postemergence, 250 g ai/ha, 0 to 100 scale, 0 no effect, 100 complete control
[16] = Postemergence, 1000 g ai/ha, 0 to 100 scale, 0 no effect, 100 complete control
[17] = Preemergence, 1000 g ai/ha, visual rating, 0 to 100 scale (0 no effect, 100 complete control)
[18] = preemergence, 250 g ai/ha, visual injury, 0 to 100 scale (0 no effect, 100 complete control)
[19] = 500 g ai/ha, visual rating 0-100, 0 no effect, 100 complete control
[20] = 125 g ai/ha, 0 to 100 scale, 0 is no effect, 100 is complete control

CCn1nc(C(C)(C)C)cc1C(=O)Nc1cccc(S(C)(=O)=O)c1 [Compound 133]
Velvetleaf plant response rating (velvetleaf [1]; [15]): 10
Plant response rating, Velvetleaf (velvetleaf [1]; [16]): 15
Velvetleaf plant response rating (velvetleaf [1]; [17]): 35
Velvetleaf plant response rating (velvetleaf [1]; [18]): 5
Oat, Wild plant response rating (wild oat; 125 g ai/ha): 20
Oat, Wild plant response rating (wild oat; 500 g ai/ha): 20
Crabgrass, Large plant response rating (large crabgrass [2]; [15]): 10
Plant response rating, Crabgrass, Large (large crabgrass [2]; [16]): 20
Crabgrass, Large plant response rating (large crabgrass [2]; [17]): 80
Crabgrass, Large plant response rating (large crabgrass [2]; [18]): 25
Morningglory plant response rating (morningglory [3]; [15]): 10
Plant response rating, Morningglory (morningglory [3]; [16]): 20
Morningglory plant response rating (morningglory [3]; [17]): 0
Morningglory plant response rating (morningglory [3]; [18]): 0
Plant response rating, Cocklebur (cocklebur; [19]): 0
Cocklebur plant response rating (cocklebur; 125 g ai/ha): 10
Cocklebur plant response rating (cocklebur; 500 g ai/ha): 60
Plant response rating, Cocklebur (cocklebur; [20]): 0
Barnyardgrass plant response rating (barnyardgrass [4]; [15]): 20
Plant response rating, Barnyardgrass (barnyardgrass [4]; [16]): 55
Barnyardgrass plant response rating (barnyardgrass [4]; [17]): 45
Barnyardgrass plant response rating (barnyardgrass [4]; [18]): 0
Plant response rating, Crabgrass, Large (large crabgrass [5]; [19]): 80
Crabgrass, Large plant response rating (large crabgrass [5]; 125 g ai/ha): 10
Crabgrass, Large plant response rating (large crabgrass [5]; 500 g ai/ha): 30
Plant response rating, Crabgrass, Large (large crabgrass [5]; [20]): 20
Plant response rating, Morningglory (morningglory [6]; [19]): 10
Morningglory plant response rating (morningglory [6]; 125 g ai/ha): 10
Morningglory plant response rating (morningglory [6]; 500 g ai/ha): 20
Plant response rating, Morningglory (morningglory [6]; [20]): 10
Plant response rating, Velvetleaf (velvetleaf [7]; [19]): 70
Velvetleaf plant response rating (velvetleaf [7]; 125 g ai/ha): 10
Velvetleaf plant response rating (velvetleaf [7]; 500 g ai/ha): 50
Plant response rating, Velvetleaf (velvetleaf [7]; [20]): 20
Foxtail, Giant plant response rating (giant foxtail [8]; [15]): 10
Plant response rating, Foxtail, Giant (giant foxtail [8]; [16]): 20
Foxtail, Giant plant response rating (giant foxtail [8]; [17]): 30
Foxtail, Giant plant response rating (giant foxtail [8]; [18]): 0
Wheat plant response rating (wheat; 125 g ai/ha): 0
Wheat plant response rating (wheat; 500 g ai/ha): 0
Blackgrass plant response rating (blackgrass; 125 g ai/ha): 0
Blackgrass plant response rating (blackgrass; 500 g ai/ha): 10
Plant response rating, Rice (rice [9]): 40
Plant response rating, Corn (corn; [19]): 0
Corn plant response rating (corn; 125 g ai/ha): 10
Corn plant response rating (corn; 500 g ai/ha): 20
Plant response rating, Corn (corn; [20]): 0
Plant response rating, Barnyardgrass (barnyardgrass [10]; [19]): 60
Barnyardgrass plant response rating (barnyardgrass [10]; 125 g ai/ha): 0
Barnyardgrass plant response rating (barnyardgrass [10]; 500 g ai/ha): 40
Plant response rating, Barnyardgrass (barnyardgrass [10]; [20]): 10
Sedge, Umbrella plant response rating [11]: 40
Ducksalad plant response rating (ducksalad): 50
Plant response rating, Lambsquarters (lambsquarters; [19]): 100
Lambsquarters plant response rating (lambsquarters; 125 g ai/ha): 60
Lambsquarters plant response rating (lambsquarters; 500 g ai/ha): 70
Plant response rating, Lambsquarters (lambsquarters; [20]): 50
Plant response rating, Foxtail, Giant (giant foxtail [12]; [19]): 40
Foxtail, Giant plant response rating (giant foxtail [12]; 125 g ai/ha): 0
Foxtail, Giant plant response rating (giant foxtail [12]; 500 g ai/ha): 20
Plant response rating, Foxtail, Giant (giant foxtail [12]; [20]): 0
Pigweed plant response rating (redroot pigweed; [15]): 30
Plant response rating, Pigweed (redroot pigweed; [16]): 75
Pigweed plant response rating (redroot pigweed; [17]): 65
Pigweed plant response rating (redroot pigweed; [18]): 10
Rice plant response rating (rice [13]): 0
Plant response rating, Surinam Grass (Surinam grass; [19]): 20
Surinam Grass plant response rating (Surinam grass; 125 g ai/ha): 0
Surinam Grass plant response rating (Surinam grass; 500 g ai/ha): 50
Plant response rating, Surinam Grass (Surinam grass; [20]): 0
Barnyardgrass plant response rating (barnyardgrass [14]): 20
Plant response rating, Pigweed (pigweed; [19]): 100
Pigweed plant response rating (pigweed; 125 g ai/ha): 20
Pigweed plant response rating (pigweed; 500 g ai/ha): 50
Plant response rating, Pigweed (pigweed; [20]): 100
